Columns and labels:
tall mallow = test: Test D tall mallow; format: in vivo, Malva sylvestris; conditions: Preemergence, 0 to 100 scale
Method in brief: (§1)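 Scoring used a 0–100 visual injury scale, with 0 meaning no effect and 100 complete control, assessed 14–21 days after application alongside untreated pots. Preemergence treatments went onto sandy loam surfaces of separately potted seeds within a day of sowing.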

common ragweed = test: Test C postemergence common ragweed; format: in vivo, Ambrosia elatior; conditions: 0 to 100 scale, 0 no effect, 100 complete control
Method in brief: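 In this greenhouse assay, treated and untreated plants were kept for approximately 14 to 21 days following postemergence application, then rated by eye on a scale from 0 (no effect) to 100 (complete control).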

Spanishneedles = test: Test D Spanishneedles; format: in vivo, Bidens bipinnata; conditions: Preemergence, 0 to 100 scale
Method in brief: as §1

dallisgrass = test: Test D dallisgrass; format: in vivo, Paspalum dilatatum; conditions: Preemergence, 0 to 100 scale
Method in brief: as §1

sandbur = test: Test D sandbur; format: in vivo, Cenchrus echinatus; conditions: Preemergence, 0 to 100 scale
Method in brief: as §1

common groundsel = test: Test D common groundsel; format: in vivo, Senecio vulgaris; conditions: Preemergence, 0 to 100 scale
Method in brief: as §1

itchgrass = test: Test D itchgrass; format: in vivo, Rottboellia exaltata; conditions: Preemergence, 0 to 100 scale
Method in brief: as §1

purple nutsedge = test: Test D purple nutsedge; format: in vivo, Cyperus rotundus; conditions: Preemergence, 0 to 100 scale
Method in brief: as §1

common pursiane = test: Test D common purslane; format: in vivo, Portulaca oleracea
Method in brief: as §1

pitted morningglory = test: Test D pitted morningglory; format: in vivo, Ipomoea lacunosa; conditions: Preemergence, 0 to 100 scale
Method in brief: as §1

surinam grass = test: Test D surinam grass; format: in vivo, Brachiaria decumbens; conditions: Preemergence, 0 to 100 scale
Method in brief: as §1

goosegrass = test: Test D goosegrass; format: in vivo, Eleusine indica; conditions: Preemergence, 0 to 100 scale
Method in brief: as §1

guineagrass = test: Test D guineagrass; format: in vivo, Panicum maximum; conditions: Preemergence, 0 to 100 scale
Method in brief: as §1

Green foxtail = test: Test D green foxtail; format: in vivo
Method in brief: as §1

bermuda-grass = test: Test D bermudagrass; format: in vivo, Cynodon dactylon; conditions: Preemergence, 0 to 100 scale
Method in brief: as §1

Alexandergrass = test: Test D Alexandergrass; format: in vivo, Brachiaria plantaginea; conditions: Preemergence, 0 to 100 scale
Method in brief: as §1

Johnson grass = test: Test D Johnson grass; format: in vivo, Sorghum halepense; conditions: Preemergence, 0 to 100 scale
Method in brief: as §1

[1] = Rate 16 g/ha, 0 no injury, 100 complete control
[2] = Rate 32 g/ha, 0 no injury, 100 complete control
[3] = Rate 64 g/ha, 0 no injury, 100 complete control
[4] = Rate 125 g/ha, 0 no injury, 100 complete control
[5] = Rate 16 g/ha; Preemergence; 0 to 100 scale, 0 no injury, 100 complete control
[6] = Rate 32 g/ha; Preemergence; 0 to 100 scale, 0 no injury, 100 complete control
[7] = Rate 64 g/ha, Preemergence; 0 to 100 scale, 0 no injury, 100 complete control
[8] = Rate 125 g/ha, Preemergence; 0 to 100 scale, 0 no injury, 100 complete control
[9] = Rate 250 g/ha; Preemergence; 0 to 100 scale
[10] = Rate 500 g/ha, Preemergence; 0 to 100 scale

**Q.** What does the source list for `CC(C)N(C(=O)n1oc(=O)n(C(C)C)c1=O)c1ccc(F)cc1F` [Compound 109]?
**A.** Plant response rating, Tall Mallow (tall mallow; [1]): 0; Plant response rating, Tall Mallow (tall mallow; [2]): 20; Tall Mallow plant response rating (tall mallow; [3]): 60; Tall Mallow plant response rating (tall mallow; [4]): 85; Plant response rating, Tall Mallow (tall mallow; Rate 250 g/ha): 98; Plant response rating, Tall Mallow (tall mallow; Rate 500 g/ha): 100; Plant response rating Common ragweed (common ragweed; Rate 140 g/ha): 5; Plant response rating Common ragweed (common ragweed; Rate 280 g/ha): 10; Plant response rating Common ragweed (common ragweed; Rate 560 g/ha): 10; Plant response rating Common ragweed (common ragweed; Rate 1120 g/ha): 20; Plant response rating, Spanishneedles (Spanishneedles; [1]): 0; Plant response rating, Spanishneedles (Spanishneedles; [2]): 10; Spanishneedles plant response rating (Spanishneedles; [3]): 10; Spanishneedles plant response rating (Spanishneedles; [4]): 10; Plant response rating, Spanishneedles (Spanishneedles; Rate 500 g/ha): 30; Plant response rating, Dallisgrass (dallisgrass; [1]): 40; Plant response rating, Dallisgrass (dallisgrass; [2]): 98; Plant response rating, Dallisgrass (dallisgrass; [3]): 100; Plant response rating, Dallisgrass (dallisgrass; [4]): 100; Plant response rating, Dallisgrass (dallisgrass; Rate 250 g/ha): 100; Plant response rating, Dallisgrass (dallisgrass; Rate 500 g/ha): 100; Plant response rating, Sandbur (sandbur; [1]): 0; Plant response rating, Sandbur (sandbur; [2]): 0; Sandbur plant response rating (sandbur; [3]): 98; Sandbur plant response rating (sandbur; [4]): 100; Plant response rating, Sandbur (sandbur; Rate 250 g/ha): 100; Plant response rating, Sandbur (sandbur; Rate 500 g/ha): 100; Plant response rating, Com. groundsel (common groundsel; [1]): 0; Plant response rating, Com. groundsel (common groundsel; [2]): 0; Plant response rating, Com. groundsel (common groundsel; [3]): 0; Plant response rating, Com. groundsel (common groundsel; [4]): 0; Plant response rating, Com. groundsel (common groundsel; Rate 250 g/ha): 0; Plant response rating, Com. groundsel (common groundsel; Rate 500 g/ha): 0; Plant response rating, Itchgrass (itchgrass; [1]): 0; Plant response rating, Itchgrass (itchgrass; [2]): 65; Plant response rating, Itchgrass (itchgrass; [3]): 75; Plant response rating, Itchgrass (itchgrass; [4]): 75; Plant response rating, Itchgrass (itchgrass; Rate 250 g/ha): 100; Plant response rating, Itchgrass (itchgrass; Rate 500 g/ha): 100; Plant response rating, Purple nutsedge (purple nutsedge; [1]): 0; Plant response rating, Purple nutsedge (purple nutsedge; [2]): 0; Purple nutsedge plant response rating (purple nutsedge; [3]): 40; Purple nutsedge plant response rating (purple nutsedge; [4]): 40; Plant response rating, Purple nutsedge (purple nutsedge; Rate 250 g/ha): 75; Plant response rating, Purple nutsedge (purple nutsedge; Rate 500 g/ha): 85; Plant response rating, C. purslane (common pursiane; [5]): 0; Plant response rating, C. purslane (common pursiane; [6]): 0; Plant response rating, C. purslane (common pursiane; [7]): 0; Plant response rating, C. purslane (common pursiane; [8]): 0; Plant response rating, C. purslane (common pursiane; [9]): 0; Plant response rating, C. purslane (common pursiane; [10]): 55; Plant response rating, C. purslane (common pursiane; Rate 500 g/ha; Preemergence; 0 to 100 scale): 0; Plant response rating, P. morninglory (pitted morningglory; [1]): 0; Plant response rating, P. morninglory (pitted morningglory; [2]): 0; Plant response rating, P. morninglory (pitted morningglory; [3]): 0; Plant response rating, P. morninglory (pitted morningglory; [4]): 65; Plant response rating, P. morninglory (pitted morningglory; Rate 250 g/ha): 85; Plant response rating, P. morninglory (pitted morningglory; Rate 500 g/ha): 100; Plant response rating Surinam grass (surinam grass; [1]): 0; Plant response rating Surinam grass (surinam grass; [2]): 30; Surinam grass plant response rating (surinam grass; [3]): 85; Surinam grass plant response rating (surinam grass; [4]): 98; Plant response rating Surinam grass (surinam grass; Rate 250 g/ha): 100; Plant response rating Surinam grass (surinam grass; Rate 500 g/ha): 100; Plant response rating, Goosegrass (goosegrass; [1]): 85; Plant response rating, Goosegrass (goosegrass; [2]): 98; Plant response rating, Goosegrass (goosegrass; [3]): 100; Plant response rating, Goosegrass (goosegrass; [4]): 100; Plant response rating, Goosegrass (goosegrass; Rate 250 g/ha): 100; Plant response rating, Goosegrass (goosegrass; Rate 500 g/ha): 100; Plant response rating, Guineagrass (guineagrass; [1]): 90; Plant response rating, Guineagrass (guineagrass; [2]): 100; Plant response rating, Guineagrass (guineagrass; [3]): 100; Plant response rating, Guineagrass (guineagrass; [4]): 100; Plant response rating, Guineagrass (guineagrass; Rate 250 g/ha): 100; Plant response rating, Guineagrass (guineagrass; Rate 500 g/ha): 100; Plant response rating, Green foxtail (Green foxtail; Preemergence; Rate 16 g/ha; 0 to 100 scale, 0 no injury, 100 complete control): 98; Plant response rating, Green foxtail (Green foxtail; Preemergence; Rate 32 g/ha; 0 to 100 scale, 0 no injury, 100 complete control): 100; Plant response rating, Green foxtail (Green foxtail; [5]): 98; Plant response rating, Green foxtail (Green foxtail; [6]): 0; Green foxtail plant response rating (Green foxtail; [7]): 100; Plant response rating, Green foxtail (Green foxtail; [7]): 100; Green foxtail plant response rating (Green foxtail; [8]): 100; Plant response rating, Green foxtail (Green foxtail; [8]): 100; Plant response rating, Green foxtail (Green foxtail; [9]): 100; Plant response rating, Green foxtail (Green foxtail; [10]): 100; Plant response rating, Bermudagrass (bermuda-grass; [1]): 98; Plant response rating, Bermudagrass (bermuda-grass; [2]): 100; Plant response rating, Bermudagrass (bermuda-grass; [3]): 100; Plant response rating, Bermudagrass (bermuda-grass; [4]): 100; Plant response rating, Bermudagrass (bermuda-grass; Rate 250 g/ha): 100; Plant response rating, Bermudagrass (bermuda-grass; Rate 500 g/ha): 100; Plant response rating, Alexandergrass (Alexandergrass; [1]): 40; Plant response rating, Alexandergrass (Alexandergrass; [2]): 90; Plant response rating, Alexandergrass (Alexandergrass; [3]): 98; Plant response rating, Alexandergrass (Alexandergrass; [4]): 100; Plant response rating, Alexandergrass (Alexandergrass; Rate 250 g/ha): 100; Plant response rating, Alexandergrass (Alexandergrass; Rate 500 g/ha): 100; Plant response rating Johnsongrass (Johnson grass; [1]): 0; Plant response rating Johnsongrass (Johnson grass; [2]): 0; Plant response rating Johnsongrass (Johnson grass; [3]): 75; Plant response rating Johnsongrass (Johnson grass; [4]): 98; Plant response rating Johnsongrass (Johnson grass; Rate 250 g/ha): 100; Plant response rating Johnsongrass (Johnson grass; Rate 500 g/ha): 100

**Q.** With `Cc1ccc(N(C(=O)n2oc(=O)n(C(C)C)c2=O)C(C)C)cc1` [Compound 132] as the compound, how does the “Tall Mallow plant response rating” value (tall mallow; [3]) read?
**A.** Its value is 40.

**Q.** What about the “Plant response rating Common ragweed” value (common ragweed; Rate 140 g/ha) of the same compound?
**A.** The value was 0.

**Q.** And the “Plant response rating Common ragweed” value (common ragweed; Rate 280 g/ha)?
**A.** The value was 0.

**Q.** What about the “Plant response rating Common ragweed” value (common ragweed; Rate 560 g/ha) of the same compound?
**A.** Its value is 0.

**Q.** What about the “Plant response rating Common ragweed” value (common ragweed; Rate 1120 g/ha) of the same compound?
**A.** Its value is 0.

**Q.** And the “Spanishneedles plant response rating” value (Spanishneedles; [3])?
**A.** Its value is 0.

**Q.** What about the “Plant response rating, Dallisgrass” value (dallisgrass; [3]) of the same compound?
**A.** The value was 98.

**Q.** What about the “Sandbur plant response rating” value (sandbur; [3]) of the same compound?
**A.** Its value is 0.

**Q.** And the “Plant response rating, Com. groundsel” value (common groundsel; [3])?
**A.** Its value is 0.

**Q.** And the “Plant response rating, Itchgrass” value (itchgrass; [3])?
**A.** Its value is 10.

**Q.** And the “Purple nutsedge plant response rating” value (purple nutsedge; [3])?
**A.** The value was 0.

**Q.** And the “Plant response rating, C. purslane” value (common pursiane; [7])?
**A.** Its value is 10.

**Q.** And the “Plant response rating, P. morninglory” value (pitted morningglory; [3])?
**A.** Its value is 0.

**Q.** And the “Surinam grass plant response rating” value (surinam grass; [3])?
**A.** The value was 30.

**Q.** And the “Plant response rating, Goosegrass” value (goosegrass; [3])?
**A.** Its value is 98.

**Q.** What about the “Plant response rating, Guineagrass” value (guineagrass; [3]) of the same compound?
**A.** The value was 85.

**Q.** What about the “Green foxtail plant response rating” value (Green foxtail; [7]) of the same compound?
**A.** The value was 100.

**Q.** What about the “Plant response rating, Green foxtail” value (Green foxtail; [7]) of the same compound?
**A.** Its value is 100.

**Q.** And the “Plant response rating, Bermudagrass” value (bermuda-grass; [3])?
**A.** The value was 100.

**Q.** What about the “Plant response rating, Alexandergrass” value (Alexandergrass; [3]) of the same compound?
**A.** Its value is 98.

**Q.** What about the “Plant response rating Johnsongrass” value (Johnson grass; [3]) of the same compound?
**A.** The value was 35.

— patent US6737383B1, “Herbicidal oxadiazolidines” (priority 1999, dated 2004)
